The species entered for test [1] is Cavia porcellus. The experiment in a line: Effect on ileal tone in guinea pig up to 100 uM; No effect. It is filed as functional.
For test [2], the species on record is Cavia porcellus. Put plainly: Inhibitory activity against L-glutamate decarboxylase treated from 0.01 to 10 mM concentrations of the compound; Inactive.
The subject of test [3] is Rattus norvegicus. Put plainly: In vivo pentobarbital (30 mg/kg ip)-induced hypnosis in rats after intracerebroventricular administration at a dose of 1.95uL. It is filed as functional.
The subject of test [4] is Rattus norvegicus. The experiment in a line: In vivo pentobarbital (30 mg/kg ip)-induced hypnosis in rats after intracerebroventricular administration at a dose of 3.90 uL. It is filed as functional.
The test system of test [5] is Rattus norvegicus. The experiment in a line: In vivo pentobarbital (30 mg/kg ip)-induced hypnosis in rats after intracerebroventricular administration at a dose of 7.80 uL. It is filed as functional.
In test [6] the test system is Rattus norvegicus. Put plainly: In vivo pentobarbital (30 mg/kg ip)-induced hypnosis in rats after iv administration at a dose of 92 umol. It is filed as functional.
Test [7] relates to Rattus norvegicus. Put plainly: In vivo pentobarbital (30 mg/kg ip)-induced hypnosis in rats after intracerebroventricular administration at a dose of 7.80 uL by pretreatment with atropine (1.0 mg/kg iv). It is filed as functional.
Test [8] concerns Rattus norvegicus. Put plainly: In vivo pentobarbital (30 mg/kg ip)-induced hypnosis in rats after iv administration at a dose of 184 umol. It is filed as functional.
The subject of test [9] is Rattus norvegicus. The experiment in a line: In vivo pentobarbital (30 mg/kg ip)-induced hypnosis in rats; Moderate dyspnea. It is filed as functional, organism-based.
For test [10], the system named is Rattus norvegicus. The experiment in a line: In vivo pentobarbital (30 mg/kg ip)-induced hypnosis in rats after iv administration at a dose of 23 umol. It is filed as functional.
Test [11] relates to Rattus norvegicus. Put plainly: In vivo pentobarbital (30 mg/kg ip)-induced hypnosis in rats after iv administration at a dose of 46 umol. It is filed as functional.
Test [12] is filed under the species Cavia porcellus. The experiment in a line: Inhibitory activity against L-glutamic decarboxylase treated from 0.01 to 10 mM concentrations of the compound; Inactive.
For test [13], the system named is Rattus norvegicus. The experiment in a line: In vivo pentobarbital (30 mg/kg ip)-induced hypnosis in rats after intracerebroventricular administration at a dose of 15.6 uL. It is filed as functional.
Test [14] deals with Rattus norvegicus. The experiment in a line: In vivo pentobarbital (30 mg/kg ip)-induced hypnosis in rats after intracerebroventricular administration at a dose of 15.6 uL by pretreatment with atropine (1.0 mg/kg iv). It is filed as functional.
Test [15] concerns Rattus norvegicus. The experiment in a line: In vivo pentobarbital (30 mg/kg ip)-induced hypnosis in rats after iv administration at a dose of 368 umol. It is filed as functional.
Test [16] addresses GABA-B receptor (Homo sapiens) (UniProt Q9UBS5+O75899). Put plainly: Antagonistic potency against Gamma-aminobutyric acid type B receptor of guinea pig ileum. It is filed as functional, tissue-based. Conditions: Cavia porcellus, target entry is the homologue from another species.

Active and inactive are the calls of the source. The calls are words filed in the database; no cut-off is given here.

This note sets out measurements from ChEMBL document CHEMBL1136325, “Synthesis and biological evaluation of GABA derivatives able to cross the blood-brain barrier in rats” (2003).

Consider `CN1C=CC(CC2C=CN(C)C=C2C(=O)NCCCC(=O)[O-])C(C(=O)NCCCC(=O)[O-])=C1.[Na+].[Na+]` (centres undefined), for which the Ileal activity entry in the test filed under Cavia porcellus [1] was “inactive”. Moreover, in the test listed under Cavia porcellus [2], the result was inactive. Further, the Hypnosis duration with Rattus norvegicus [3] stood at 147 min; in the test with Rattus norvegicus [4], 142 min; in the test on Rattus norvegicus [5] it was 60 min; with Rattus norvegicus [6], 149 min; with Rattus norvegicus [7], 184 min; in the test with Rattus norvegicus [8] it was 80 min.

With `NCCCC(=O)O` [GAMMA-AMINOBUTYRIC ACID], the Hypnosis duration worked out at 188 min in the test with Rattus norvegicus [4] and 128 min in the test on Rattus norvegicus [8].

For `C[n+]1cccc(C(=O)NCCCC(=O)OCc2ccccc2)c1.[I-]`, the Hypnosis duration entry is given as “Moderate dyspnea” in the test on Rattus norvegicus [9], 156 min with Rattus norvegicus [10], 207 min in the test with Rattus norvegicus [11] and 194 min in the test on Rattus norvegicus [6].

For `COS(=O)(=O)[O-].C[n+]1cccc(C(=O)NCCCC(=O)O)c1`, the Ileal activity result in the test listed under Cavia porcellus [1] was “inactive”. For the same molecule, the result in the test listed under Cavia porcellus [12] was inactive. Further, the Hypnosis duration in the test with Rattus norvegicus [13] is given as 100 min; in the test with Rattus norvegicus [14] it was 158 min; in the test with Rattus norvegicus [15], 153 min.

Turning to `CN1C=CC(CC2C=CN(C)C=C2C(=O)NCCCC(=O)OCc2ccccc2)C(C(=O)NCCCC(=O)OCc2ccccc2)=C1` (centres undefined), in test [16], the pD2 stood at 5.59. For the same molecule, the Effect entry in the test listed under Cavia porcellus [1] is “inactive”. For the same molecule, the Adverse effect result in the test with Rattus norvegicus [9] is given as “Moderate dyspnea”. Further, the values for the Hypnosis duration in the test on Rattus norvegicus [10] and with Rattus norvegicus [11] were 206 min and 257 min, respectively.
